The structures appear in SMILES notation. Active and inactive are the calls of the source.

The target of experiment [1] is T1, Sentrin-specific protease 8 (Homo sapiens, UniProt Q96LD8).
T1 sequence (Q96LD8 whole entry): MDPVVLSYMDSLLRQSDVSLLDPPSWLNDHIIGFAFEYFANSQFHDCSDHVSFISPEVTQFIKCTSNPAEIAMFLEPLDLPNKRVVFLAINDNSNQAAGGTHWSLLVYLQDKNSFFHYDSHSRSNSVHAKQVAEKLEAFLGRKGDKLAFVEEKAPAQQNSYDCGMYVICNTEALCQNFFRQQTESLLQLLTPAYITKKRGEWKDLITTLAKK
Type of experiment: functional.

The target in experiment [2] is T1, Sentrin-specific protease 8. Format: functional. This is another data set of the same source.
Experiment [3] deals with T2, Caspase-3 (Homo sapiens, UniProt P42574).
T2 sequence (P42574 whole entry): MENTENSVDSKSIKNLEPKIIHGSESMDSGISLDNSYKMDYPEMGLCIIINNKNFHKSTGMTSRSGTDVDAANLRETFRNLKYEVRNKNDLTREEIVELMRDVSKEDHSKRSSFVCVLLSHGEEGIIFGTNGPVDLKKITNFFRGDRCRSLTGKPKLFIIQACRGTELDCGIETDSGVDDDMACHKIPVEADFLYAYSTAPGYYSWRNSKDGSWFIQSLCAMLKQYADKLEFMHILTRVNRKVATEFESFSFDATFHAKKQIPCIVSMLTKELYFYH
The experiment can be described thus: Dose-response confirmation of uHTS inhibitor hits of Sentrin-Specific Protease 8 in a Caspase-3 Fluorescence assay. Format: functional.

Experiment [4] concerns the target T3, Corticotropin-releasing factor receptor 2/Corticotropin-releasing factor-binding protein (Homo sapiens, UniProt P24387+Q13324).
T3 sequence (Q13324 whole entry): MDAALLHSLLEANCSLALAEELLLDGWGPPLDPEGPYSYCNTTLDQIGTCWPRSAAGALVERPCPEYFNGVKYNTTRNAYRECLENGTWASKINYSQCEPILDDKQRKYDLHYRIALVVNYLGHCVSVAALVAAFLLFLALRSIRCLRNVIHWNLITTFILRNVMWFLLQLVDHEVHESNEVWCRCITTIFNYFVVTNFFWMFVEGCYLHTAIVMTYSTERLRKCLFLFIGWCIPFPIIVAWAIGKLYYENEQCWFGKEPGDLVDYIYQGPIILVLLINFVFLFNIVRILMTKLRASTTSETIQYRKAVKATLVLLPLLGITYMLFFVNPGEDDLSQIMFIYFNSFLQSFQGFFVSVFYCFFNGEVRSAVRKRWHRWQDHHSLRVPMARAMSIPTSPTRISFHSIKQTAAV
T3 sequence (P24387 whole entry): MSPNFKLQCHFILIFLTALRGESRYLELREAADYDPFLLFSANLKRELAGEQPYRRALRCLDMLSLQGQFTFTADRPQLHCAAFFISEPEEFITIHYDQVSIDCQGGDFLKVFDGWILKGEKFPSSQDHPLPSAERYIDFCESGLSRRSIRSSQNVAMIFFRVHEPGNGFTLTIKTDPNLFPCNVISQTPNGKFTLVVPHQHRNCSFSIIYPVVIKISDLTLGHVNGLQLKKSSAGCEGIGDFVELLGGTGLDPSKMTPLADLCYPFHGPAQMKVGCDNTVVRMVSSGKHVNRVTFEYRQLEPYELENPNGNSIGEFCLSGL
Description: activators of CRF receptor 2 with binding protein – uHTS hits, confirmation (AID 602473). Type of experiment: functional. As to conditions: read-out: EC50_Mean.

Experiment [5] relates to Vero. Description: cells. Type of experiment: functional. The settings on record: Chlorocebus sabaeus.
In experiment [6] the target is DNA repair and recombination protein RAD54-like (Homo sapiens, UniProt Q92698). The experiment can be described thus: RAD54 Holliday junction migration blockers – biochemical, fluorescence, cherry-picked samples, dose series, confirmation (AID 651657). Format: functional.
Experiment [7] has as its target T4, DNA repair protein RAD52 homolog (Homo sapiens, UniProt P43351).
T4 sequence (P43351 whole entry): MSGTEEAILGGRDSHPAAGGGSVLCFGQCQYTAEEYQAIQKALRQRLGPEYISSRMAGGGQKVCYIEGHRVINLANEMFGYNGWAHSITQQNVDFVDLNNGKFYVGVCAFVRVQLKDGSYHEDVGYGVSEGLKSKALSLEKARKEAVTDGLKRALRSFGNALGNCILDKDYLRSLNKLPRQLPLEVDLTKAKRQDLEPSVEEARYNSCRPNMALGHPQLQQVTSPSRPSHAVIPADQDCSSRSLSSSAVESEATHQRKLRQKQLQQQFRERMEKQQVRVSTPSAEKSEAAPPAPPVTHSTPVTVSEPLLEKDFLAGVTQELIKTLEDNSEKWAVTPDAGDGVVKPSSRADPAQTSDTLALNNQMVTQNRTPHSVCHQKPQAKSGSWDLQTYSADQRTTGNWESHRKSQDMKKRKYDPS
Type of experiment: functional, biochemical.

The target in experiment [8] is T5, Short transient receptor potential channel 4 (Mus musculus, UniProt Q9QUQ5).
T5 sequence (Q9QUQ5 whole entry): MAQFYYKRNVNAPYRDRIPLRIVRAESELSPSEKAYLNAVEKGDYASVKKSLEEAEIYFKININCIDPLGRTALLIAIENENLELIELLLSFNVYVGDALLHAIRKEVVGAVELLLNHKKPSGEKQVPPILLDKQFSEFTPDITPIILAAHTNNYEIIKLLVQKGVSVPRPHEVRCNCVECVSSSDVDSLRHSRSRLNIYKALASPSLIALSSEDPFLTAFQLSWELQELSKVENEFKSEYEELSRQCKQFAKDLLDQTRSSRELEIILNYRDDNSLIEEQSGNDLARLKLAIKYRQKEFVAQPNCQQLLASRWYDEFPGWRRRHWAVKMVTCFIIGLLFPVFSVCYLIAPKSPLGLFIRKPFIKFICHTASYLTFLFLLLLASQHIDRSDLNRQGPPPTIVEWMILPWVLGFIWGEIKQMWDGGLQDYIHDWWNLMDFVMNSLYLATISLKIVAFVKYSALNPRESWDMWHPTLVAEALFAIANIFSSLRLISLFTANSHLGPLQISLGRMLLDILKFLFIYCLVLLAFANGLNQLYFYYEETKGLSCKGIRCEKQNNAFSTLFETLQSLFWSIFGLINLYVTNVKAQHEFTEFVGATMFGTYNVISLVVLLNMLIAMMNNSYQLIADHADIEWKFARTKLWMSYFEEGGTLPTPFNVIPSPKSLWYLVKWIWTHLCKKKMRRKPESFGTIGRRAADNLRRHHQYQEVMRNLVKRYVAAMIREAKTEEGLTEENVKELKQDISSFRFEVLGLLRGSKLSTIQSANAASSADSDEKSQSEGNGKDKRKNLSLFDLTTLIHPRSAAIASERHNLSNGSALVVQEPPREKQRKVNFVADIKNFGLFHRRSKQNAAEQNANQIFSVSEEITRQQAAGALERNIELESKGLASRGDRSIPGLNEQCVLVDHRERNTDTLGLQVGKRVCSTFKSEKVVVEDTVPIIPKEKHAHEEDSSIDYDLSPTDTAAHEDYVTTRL
Description: calcium entry via TRPC4 opening agents – cell-based, HEK293 TRPC4/mu-opioid, Fluo-4 calcium, dose response (AID 434937). Type of experiment: functional.

In experiment [9] the target is Mu-type opioid receptor (Homo sapiens, UniProt P35372). The experiment can be described thus: Counterscreen for agonists of heterodimerization of the mu 1 (OPRM1) and delta 1 (OPRD1) opioid receptors: Luminescence-based cell-based high throughput dose response assay to identify agonists of OPRM1 homodimerization. Type of experiment: functional. A general note: A counterscreen serves to expose hits that act by an unwanted route or on another target.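 Also: U2OS cells expressing OPRM1 and beta-arrestin as split beta-galactosidase partners.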

The target in experiment [10] is 5-hydroxytryptamine receptor 5A (Homo sapiens, UniProt P47898). Description: Counterscreen for agonists of OPRM1-OPRD1 heterodimerization: luminescence-based cell-based high throughput dose response assay to identify agonists of 5-hydroxytryptamine (serotonin) 5A receptor (HTR5A). [Related pubchem assays (depositor defined):AID504326, AID504355, AID504692, AID504904, AID504905]. Type of experiment: functional.

The target of experiment [11] is Delta-type opioid receptor (Homo sapiens, UniProt P41143). Description: Counterscreen for agonists of heterodimerization of the mu 1 (OPRM1) and delta 1 (OPRD1) opioid receptors: Luminescence-based cell-based high throughput dose response assay to identify agonists of OPRD1 homodimerization. [Related pubchem assays (depositor defined):AID504326, AID504355, AID504692, AID504904, AID504905]. Format: functional.

The target of experiment [12] is Tyrosine-protein phosphatase non-receptor type 22 (Homo sapiens, UniProt Q9Y2R2). Description: lymphoid phosphatase LYP inhibitors – biochemical, selectivity assay for STEP inhibitor project, dose response (AID 624241). Format: functional.
The target in experiment [13] is T6, Tyrosine-protein phosphatase non-receptor type 11 (Homo sapiens, UniProt Q06124).
T6 sequence (Q06124 whole entry): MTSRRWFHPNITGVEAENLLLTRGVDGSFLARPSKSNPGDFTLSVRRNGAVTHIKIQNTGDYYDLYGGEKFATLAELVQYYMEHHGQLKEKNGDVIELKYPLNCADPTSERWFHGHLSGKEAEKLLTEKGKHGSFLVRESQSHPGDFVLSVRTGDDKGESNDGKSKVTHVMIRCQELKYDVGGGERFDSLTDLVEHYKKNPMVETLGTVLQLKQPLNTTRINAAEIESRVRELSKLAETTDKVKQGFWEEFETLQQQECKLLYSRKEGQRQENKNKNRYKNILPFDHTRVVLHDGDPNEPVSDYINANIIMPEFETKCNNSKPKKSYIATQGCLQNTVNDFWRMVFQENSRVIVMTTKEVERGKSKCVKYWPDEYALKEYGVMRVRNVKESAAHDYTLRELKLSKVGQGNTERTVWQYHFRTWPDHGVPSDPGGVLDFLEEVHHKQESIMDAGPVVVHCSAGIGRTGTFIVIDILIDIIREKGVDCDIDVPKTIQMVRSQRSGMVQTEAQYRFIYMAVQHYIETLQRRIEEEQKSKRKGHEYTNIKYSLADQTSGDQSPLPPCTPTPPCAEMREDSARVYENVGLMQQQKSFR
The experiment can be described thus: PTPN11 enzyme inhibitors – biochemical, selectivity assay for STEP inhibitor project, dose response (AID 602367). Format: functional. The settings on record: read-out: IC50_Mean.

Experiment [14] has as its target T7, Tyrosine-protein phosphatase non-receptor type 5 (Homo sapiens, UniProt P54829).
T7 sequence (P54829 whole entry): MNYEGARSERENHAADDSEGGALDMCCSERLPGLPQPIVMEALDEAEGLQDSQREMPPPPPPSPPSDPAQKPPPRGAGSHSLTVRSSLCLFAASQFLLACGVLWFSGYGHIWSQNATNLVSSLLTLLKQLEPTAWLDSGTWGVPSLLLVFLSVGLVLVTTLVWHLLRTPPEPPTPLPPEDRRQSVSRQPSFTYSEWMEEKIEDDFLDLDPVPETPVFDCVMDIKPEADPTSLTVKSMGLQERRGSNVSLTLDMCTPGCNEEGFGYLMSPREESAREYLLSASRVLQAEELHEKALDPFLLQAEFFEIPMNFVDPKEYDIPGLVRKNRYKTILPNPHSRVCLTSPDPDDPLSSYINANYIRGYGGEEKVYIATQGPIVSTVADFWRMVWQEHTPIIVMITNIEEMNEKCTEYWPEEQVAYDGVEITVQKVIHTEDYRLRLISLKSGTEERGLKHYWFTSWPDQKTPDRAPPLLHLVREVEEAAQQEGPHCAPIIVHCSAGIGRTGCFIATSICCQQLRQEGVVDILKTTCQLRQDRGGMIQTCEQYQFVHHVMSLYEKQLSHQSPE
Description: PTPN5 enzyme inhibition – biochemical, fluorescence intensity, uHTS hits, confirmation (AID 602372). As to conditions: read-out: IC50_Mean. Type of experiment: functional.

Experiment [15] concerns the target Dual specificity protein phosphatase 3 (Homo sapiens, UniProt P51452). Description: VHR phosphatase inhibition, dose response, selectivity assay for STEP inhibitor project, biochemical (AID 602374). Type of experiment: functional. The settings on record: read-out: IC50_Mean.
The target in experiment [16] is Prothrombin (Bos taurus, UniProt P00735). Description: thrombin protease inhibitors – biochemical, fluorescence polarization, uHTS hits, dose response (AID 602369). Format: functional.
For experiment [17], the target named is 72 kDa type IV collagenase (Homo sapiens, UniProt P08253). Description: Dose Response validation of uHTS RPN11 inhibitor hits using a MMP-2 Fluorescence assay. Type of experiment: functional.
The target in experiment [18] is 26S proteasome non-ATPase regulatory subunit 14 (Homo sapiens, UniProt O00487). The experiment can be described thus: inhibition of proteasome subunit RPN11 – biochemical, fluorescence polarization, uHTS hits, confirmation (AID 602368). Format: functional.
Sequence of 26S proteasome non-ATPase regulatory subunit 14 (O00487 whole entry): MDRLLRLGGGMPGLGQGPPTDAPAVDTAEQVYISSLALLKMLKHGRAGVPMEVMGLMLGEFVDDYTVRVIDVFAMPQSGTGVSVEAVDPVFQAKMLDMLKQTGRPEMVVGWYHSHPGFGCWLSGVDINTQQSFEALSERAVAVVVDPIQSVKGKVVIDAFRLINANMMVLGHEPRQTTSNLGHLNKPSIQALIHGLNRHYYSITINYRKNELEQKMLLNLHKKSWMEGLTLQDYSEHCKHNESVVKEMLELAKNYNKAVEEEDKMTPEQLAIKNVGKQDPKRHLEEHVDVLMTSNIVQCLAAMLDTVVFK

Sequence of DNA repair and recombination protein RAD54-like (Q92698 whole entry): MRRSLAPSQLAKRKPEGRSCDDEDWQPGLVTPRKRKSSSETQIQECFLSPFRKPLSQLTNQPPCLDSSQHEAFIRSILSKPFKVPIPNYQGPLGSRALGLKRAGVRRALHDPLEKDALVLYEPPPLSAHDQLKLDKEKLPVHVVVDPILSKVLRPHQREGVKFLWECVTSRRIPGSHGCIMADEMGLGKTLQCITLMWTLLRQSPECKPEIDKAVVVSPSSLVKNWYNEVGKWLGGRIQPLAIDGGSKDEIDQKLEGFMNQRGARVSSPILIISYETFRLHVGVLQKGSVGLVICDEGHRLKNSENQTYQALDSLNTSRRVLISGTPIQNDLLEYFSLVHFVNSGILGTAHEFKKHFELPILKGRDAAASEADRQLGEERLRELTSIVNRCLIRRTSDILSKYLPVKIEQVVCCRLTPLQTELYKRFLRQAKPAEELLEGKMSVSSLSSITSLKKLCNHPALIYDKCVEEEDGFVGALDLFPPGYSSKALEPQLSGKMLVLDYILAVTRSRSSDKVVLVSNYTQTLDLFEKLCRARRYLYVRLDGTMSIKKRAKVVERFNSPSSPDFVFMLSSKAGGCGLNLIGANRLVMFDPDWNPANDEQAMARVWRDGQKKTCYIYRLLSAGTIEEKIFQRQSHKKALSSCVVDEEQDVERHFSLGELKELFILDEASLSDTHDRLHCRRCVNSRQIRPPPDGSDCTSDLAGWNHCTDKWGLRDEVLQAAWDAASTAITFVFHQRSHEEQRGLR
Sequence of 72 kDa type IV collagenase (P08253 whole entry): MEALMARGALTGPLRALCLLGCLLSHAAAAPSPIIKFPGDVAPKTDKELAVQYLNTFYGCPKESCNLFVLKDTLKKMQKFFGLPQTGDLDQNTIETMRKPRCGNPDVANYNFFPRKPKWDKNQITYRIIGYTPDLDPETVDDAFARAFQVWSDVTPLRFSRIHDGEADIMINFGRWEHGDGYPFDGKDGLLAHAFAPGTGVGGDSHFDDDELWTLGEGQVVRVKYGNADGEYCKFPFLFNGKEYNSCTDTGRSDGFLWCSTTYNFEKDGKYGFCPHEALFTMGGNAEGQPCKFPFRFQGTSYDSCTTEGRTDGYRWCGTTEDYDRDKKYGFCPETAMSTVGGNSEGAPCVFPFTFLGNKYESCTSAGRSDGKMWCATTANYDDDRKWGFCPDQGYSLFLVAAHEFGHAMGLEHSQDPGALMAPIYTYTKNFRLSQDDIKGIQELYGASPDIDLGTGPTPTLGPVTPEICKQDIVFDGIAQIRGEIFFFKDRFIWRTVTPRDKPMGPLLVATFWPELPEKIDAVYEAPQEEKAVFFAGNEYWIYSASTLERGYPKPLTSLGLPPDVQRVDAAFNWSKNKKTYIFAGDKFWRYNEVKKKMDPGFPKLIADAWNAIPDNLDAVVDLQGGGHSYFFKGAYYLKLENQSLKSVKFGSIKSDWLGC
Sequence of Dual specificity protein phosphatase 3 (P51452 whole entry): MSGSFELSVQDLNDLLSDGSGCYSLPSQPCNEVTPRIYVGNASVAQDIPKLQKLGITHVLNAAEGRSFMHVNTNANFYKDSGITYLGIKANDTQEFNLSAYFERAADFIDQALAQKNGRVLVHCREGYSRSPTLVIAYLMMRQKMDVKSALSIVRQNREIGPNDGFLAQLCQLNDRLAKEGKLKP
Sequence of 5-hydroxytryptamine receptor 5A (P47898 whole entry): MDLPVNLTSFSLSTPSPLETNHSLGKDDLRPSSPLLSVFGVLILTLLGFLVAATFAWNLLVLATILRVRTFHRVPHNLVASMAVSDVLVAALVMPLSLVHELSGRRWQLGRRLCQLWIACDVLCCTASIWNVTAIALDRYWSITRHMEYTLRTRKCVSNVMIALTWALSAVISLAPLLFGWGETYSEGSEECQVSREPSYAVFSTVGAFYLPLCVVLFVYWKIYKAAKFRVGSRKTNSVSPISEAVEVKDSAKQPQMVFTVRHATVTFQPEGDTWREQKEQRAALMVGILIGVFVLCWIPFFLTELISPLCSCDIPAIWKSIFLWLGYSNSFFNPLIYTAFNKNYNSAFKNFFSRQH
Sequence of Mu-type opioid receptor (P35372 whole entry): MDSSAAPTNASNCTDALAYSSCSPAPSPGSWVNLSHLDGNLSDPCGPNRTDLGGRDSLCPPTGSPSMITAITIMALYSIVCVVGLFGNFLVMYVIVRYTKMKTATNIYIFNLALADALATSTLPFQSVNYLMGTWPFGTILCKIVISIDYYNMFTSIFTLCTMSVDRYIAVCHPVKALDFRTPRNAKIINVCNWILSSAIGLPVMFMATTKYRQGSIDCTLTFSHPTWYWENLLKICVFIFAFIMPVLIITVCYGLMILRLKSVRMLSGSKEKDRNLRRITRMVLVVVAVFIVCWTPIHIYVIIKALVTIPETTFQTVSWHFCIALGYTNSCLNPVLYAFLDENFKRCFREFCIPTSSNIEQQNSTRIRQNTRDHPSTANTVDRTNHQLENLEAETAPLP
Sequence of Delta-type opioid receptor (P41143 whole entry): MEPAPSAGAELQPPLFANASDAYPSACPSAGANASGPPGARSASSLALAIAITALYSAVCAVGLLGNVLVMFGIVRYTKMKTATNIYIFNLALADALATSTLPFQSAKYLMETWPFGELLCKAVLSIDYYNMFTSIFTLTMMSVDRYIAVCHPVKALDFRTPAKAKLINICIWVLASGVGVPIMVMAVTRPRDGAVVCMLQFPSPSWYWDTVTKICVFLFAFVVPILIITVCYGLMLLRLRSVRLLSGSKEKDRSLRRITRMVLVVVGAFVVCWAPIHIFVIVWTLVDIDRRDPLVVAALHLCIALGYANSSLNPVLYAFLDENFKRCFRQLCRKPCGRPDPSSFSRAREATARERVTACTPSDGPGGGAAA
Sequence of Tyrosine-protein phosphatase non-receptor type 22 (Q9Y2R2 whole entry): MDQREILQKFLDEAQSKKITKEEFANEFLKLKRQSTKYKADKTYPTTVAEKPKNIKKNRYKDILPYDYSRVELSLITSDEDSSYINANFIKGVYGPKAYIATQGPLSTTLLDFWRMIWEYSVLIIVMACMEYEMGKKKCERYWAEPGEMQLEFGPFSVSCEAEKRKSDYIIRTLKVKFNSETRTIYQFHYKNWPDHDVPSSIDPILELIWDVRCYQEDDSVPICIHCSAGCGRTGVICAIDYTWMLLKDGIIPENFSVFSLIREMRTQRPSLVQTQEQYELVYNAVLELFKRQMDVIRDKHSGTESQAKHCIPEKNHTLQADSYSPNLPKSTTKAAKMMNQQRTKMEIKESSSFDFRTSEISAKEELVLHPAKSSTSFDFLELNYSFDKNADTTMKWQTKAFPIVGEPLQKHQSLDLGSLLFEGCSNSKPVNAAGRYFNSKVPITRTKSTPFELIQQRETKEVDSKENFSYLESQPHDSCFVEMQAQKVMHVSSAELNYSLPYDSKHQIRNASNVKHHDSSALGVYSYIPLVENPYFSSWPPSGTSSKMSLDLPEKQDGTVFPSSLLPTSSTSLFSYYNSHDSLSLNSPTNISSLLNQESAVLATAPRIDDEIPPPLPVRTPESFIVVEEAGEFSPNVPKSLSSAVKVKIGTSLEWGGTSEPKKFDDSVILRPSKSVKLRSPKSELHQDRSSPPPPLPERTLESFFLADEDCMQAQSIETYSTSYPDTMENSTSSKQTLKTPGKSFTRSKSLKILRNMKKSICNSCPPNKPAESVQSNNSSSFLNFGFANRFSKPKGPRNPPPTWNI

In the case of `O=C(CCC(=O)N1CCc2ccccc2C1)N1CCN(S(=O)(=O)c2ccccc2)CC1`, the values for the IC50 in experiment [1], in [2] and in experiment [3] were 12.9 µM (active), 22.2 µM (active) and 50 µM (active), respectively.
As to `O=c1c2ccccc2sc2ccc(NCCCN3CCOCC3)cc12`, the EC50 in experiment [4] was 7.98 µM (active). Further, the CC50 in experiment [5] is > 25 µM (active). Besides, the AC50 in [6] is 31.2 µM (active).
In the case of `N=c1n(CCN2CCCCC2)c2ccccc2n1CC(=O)c1cccc([N+](=O)[O-])c1`, the AC50 was 9.9 µM (active) in experiment [7] and 23.7 µM (active) in experiment [6].
In the case of `Cc1ccc(C)c(-n2cc(CNCCc3cnccn3)c(-c3ccccc3)n2)c1`, the EC50 in experiment [8] is 267 nM (active); in [9], > 92.5 µM (inactive); in experiment [10], > 92.5 µM (inactive); in experiment [11] it was > 92.5 µM (inactive).
As to `COc1ccccc1NS(=O)(=O)c1cc(NC(=O)c2sccc2C)ccc1N1CCCC1`, the IC50 in [12] is 25.9 µM (inactive); in experiment [13], 665 nM (active); in [14], 2.73 µM (active); in experiment [15] it was 163 nM (active).
Take `Cc1ccc(N2C(=O)/C(=C\NN3CCCCC3c3cccnc3)C(=O)NC2=S)cc1` (configuration not stated): the IC50 in experiment [16] is 71.3 µM (active); in experiment [17], > 100 µM (inactive); in [18] it was 31.7 µM (active).
The like results for `CCn1c(SCC(=O)c2c[nH]c3ccccc23)nnc1-c1cccs1` were, in that order, 60.5 µM (active), > 100 µM (inactive) and 24.3 µM (active).

Usually CC50 stands for the concentration that lowers cell viability or growth by half. The term AC50 denotes the concentration at which the activity in the assay is half-maximal.
